In patent US7351726B2, “Substituted oxadiazolidinediones” (Wyeth, priority 2003, dated 2008) one finds inhibition, IC50 and melting point data, which are given here for 2 compounds.

Series [1] addresses T1, recombinant human plasminogen activator inhibitor-1 (PAI-1) (Homo sapiens, UniProt P05121).
T1 construct: purchased Molecular Innovations, Royal Oak, Mich
Put plainly: Primary screen for PAI-1 inhibition (chromogenic tPA activity assay). It is filed as biochemical. The following applies: 100 μM compound; 140 nM PAI-1, 70 nM tPA; pH 6.6. The protocol:
Test compounds are dissolved in DMSO at a final concentration of 10 mM, then diluted 100× in physiologic buffer. The inhibitory assay is initiated by the addition of the substituted oxadiazolidinedione (1-100 μM final concentration, maximum DMSO concentration of 0.2%) in a pH 6.6 buffer containing 140 nM recombinant human plasminogen activator inhibitor-1 (PAI-1; Molecular Innovations, Royal Oak, Mich.). Following a 1 hour incubation at room temperature, 70 nM of recombinant human tissue plasminogen activator (tPA) is added, and the combination of the substituted oxadiazolidinedione, PAI-1 and tPA is incubated for an additional 30 minutes. Following the second incubation, Spectrozyme-tPA (American Diagnostica, Greenwich, CT), a chromogenic substrate for tPA, is added and absorbance read at 405 nm at 0 and 60 minutes. Relative PAI-1 inhibition is equal to the residual tPA activity in the presence of WAY and PAI-1. Control treatments include the complete inhibition of tPA by PAI-1 at the molar ratio employed (2:1), and the absence of any effect of the substituted oxadiazolidinedione on tPA alone.

A further series concerns the target human PAI-1 (Homo sapiens, UniProt P05121). Put plainly: Assay for determining IC50 of inhibition of PAI-1 (tPA-coated plate, antibody detection of active PAI-1). The following applies: active human PAI-1 bound to tPA-coated plate; pH 7.5; compound 1-50 μM. It is filed as binding. The protocol: This assay is based upon the non-SDS dissociable interaction between tPA and active PAI-1. Assay plates are initially coated with human tPA (10 μg/ml). Substituted oxadiazolidinedione of the present invention are dissolved in DMSO at 10 mM, then diluted with physiologic buffer (pH 7.5) to a final concentration of 1-50 μM. WAY compounds are incubated with human PAI-1 (50 ng/ml) for 15 minutes at room temperature. The tPA-coated plate is washed with a solution of 0.05% Tween 20 and 0.1% BSA, then the plate is blocked with a solution of 3% BSA. An aliquot of the substituted oxadiazolidinedione/PA-1 solution is then added to the tPA-coated plate, incubated at room temperature for 1 hour, and washed. Active PAI-1 bound to the plate is assessed by adding an aliquot of a 1:1000 dilution of the 33B8 monoclonal antibody against human PAI-1, and incubating the plate at room temperature for 1 hour (Molecular Innovations, Royal Oak, Mich.). […] The plate is incubated 45 minutes at room temperature, and color development is determined at OD405nm. The quantitation of active PAI-1 bound to tPA at varying concentrations of substituted oxadiazolidinedione is used to determine the IC50. Results are analyzed using a logarithmic best-fit equation. The assay sensitivity is 5 ng/ml of human PAI-1 as determined from a standard curve ranging from 0-100 ng/ml.

human PAI-1, sequence (P05121 24-402): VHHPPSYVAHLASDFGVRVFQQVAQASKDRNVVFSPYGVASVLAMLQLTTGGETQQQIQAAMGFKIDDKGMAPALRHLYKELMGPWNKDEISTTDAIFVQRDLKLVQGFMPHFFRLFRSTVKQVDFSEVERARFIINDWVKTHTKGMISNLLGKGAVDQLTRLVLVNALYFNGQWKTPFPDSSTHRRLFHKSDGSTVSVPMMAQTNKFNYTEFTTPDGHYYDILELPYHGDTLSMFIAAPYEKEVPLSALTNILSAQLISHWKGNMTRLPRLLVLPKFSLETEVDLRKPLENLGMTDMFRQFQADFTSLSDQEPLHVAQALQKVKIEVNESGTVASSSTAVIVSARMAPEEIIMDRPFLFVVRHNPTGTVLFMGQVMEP
T1 sequence (P05121 24-402): as above

Turning to `CC/C(=C\Cn1oc(=O)[nH]c1=O)c1ccc2c(Cc3ccccc3)c(CC)oc2c1` [Compound 2, E-2-[-3-(3-Benzyl-2-ethyl-benzofuran-6-yl)-pent-2-enyl]-[1,2,4]oxadiazolidine-3,5-dione], the inhibition (commonly the share of the control response that was lost under treatment) at 100 µM in series [1] stood at 39%.
`CC/C(=C/Cn1oc(=O)[nH]c1=O)c1ccc2c(Cc3ccccc3)c(CC)oc2c1` [Compound 1, Z-2-[-3-(3-Benzyl-2-ethyl-benzofuran-6-yl)-pent-2-enyl]-[1,2,4]oxadiazolidine-3,5-dione]: the melting point (in general, the temperature, or range, at which the solid turns liquid) lay in the range of 118 to 120 °C. For the same compound, the IC50 (commonly the concentration needed to halve the response being measured) against human PAI-1 came to 9.3 µM.
